# Test results from ChEMBL document CHEMBL5506059, “Cyanomethylquinolones as a New Class of Potential Multitargeting Broad-Spectrum Antibacterial Agents” (J Med Chem, 2024).
# Calls of active or inactive are those of the source. The rule behind the calls is not given here.
# Columns and labels:
# Staphylococcus aureus [1] = assay: Antibacterial activity against methicillin resistant Staphylococcus aureus clinical isolate assessed as inhibition of bacterial growth incubated for 24 hrs; assay type: functional
# Staphylococcus aureus [2] = assay: Antibacterial activity against Staphylococcus aureus clinical isolate assessed as inhibition of bacterial growth incubated for 24 hrs; assay type: functional
# Staphylococcus aureus [3] = assay: Antibacterial activity against Staphylococcus aureus ATCC 25923 assessed as inhibition of bacterial growth incubated for 24 hrs; assay type: functional
# Staphylococcus aureus [4] = assay: Antibacterial activity against Staphylococcus aureus ATCC 29213 assessed as inhibition of bacterial growth incubated for 24 hrs; assay type: functional
# Enterococcus faecalis [5] = assay: Antibacterial activity against Enterococcus faecalis clinical isolate assessed as inhibition of bacterial growth incubated for 24 hrs; assay type: functional
# Klebsiella pneumoniae = assay: Antibacterial activity against Klebsiella pneumoniae clinical isolate assessed as inhibition of bacterial growth incubated for 24 hrs; assay type: functional
# Escherichia coli [6] = assay: Antibacterial activity against Escherichia coli clinical isolate assessed as inhibition of bacterial growth incubated for 24 hrs; assay type: functional
# Escherichia coli [7] = assay: Antibacterial activity against Escherichia coli ATCC 25922 assessed as inhibition of bacterial growth incubated for 24 hrs; assay type: functional
# Pseudomonas aeruginosa [8] = assay: Antibacterial activity against Pseudomonas aeruginosa clinical isolate assessed as inhibition of bacterial growth incubated for 24 hrs; assay type: functional
# Pseudomonas aeruginosa [9] = assay: Antibacterial activity against Pseudomonas aeruginosa ATCC 27853 assessed as inhibition of bacterial growth incubated for 24 hrs; assay type: functional
# Acinetobacter baumannii = assay: Antibacterial activity against Acinetobacter baumannii clinical isolate assessed as inhibition of bacterial growth incubated for 24 hrs; assay type: functional
# Streptococcus pneumoniae = assay: Antibacterial activity against Streptococcus pneumoniae ATCC 6305 assessed as inhibition of bacterial growth incubated for 24 hrs; assay type: functional
# Streptococcus pyogenes = assay: Antibacterial activity against Streptococcus pyogenes ATCC 19615 assessed as inhibition of bacterial growth incubated for 24 hrs; assay type: functional
# [10] = test system: Staphylococcus epidermidis; assay: Antibacterial activity against Staphylococcus epidermidis ATCC 12228 assessed as inhibition of bacterial growth incubated for 24 hrs; assay type: functional
# Staphylococcus aureus [11] = assay: Antibacterial activity against methicillin-resistant Staphylococcus aureus ATCC 43300 assessed as inhibition of bacterial growth incubated for 24 hrs; assay type: functional
# Staphylococcus aureus [12] = assay: Antibacterial activity against Staphylococcus aureus ATCC 12600 assessed as inhibition of bacterial growth incubated for 24 hrs; assay type: functional
# Staphylococcus aureus [13] = assay: Antibacterial activity against Staphylococcus aureus ATCC 6538 assessed as inhibition of bacterial growth incubated for 24 hrs; assay type: functional
# Staphylococcus aureus [14] = assay: Antibacterial activity against Staphylococcus aureus CMCC(B)26003 assessed as inhibition of bacterial growth incubated for 24 hrs; assay type: functional
# Staphylococcus aureus [15] = assay: Antibacterial activity against Staphylococcus aureus CMCC(B)26001 assessed as inhibition of bacterial growth incubated for 24 hrs; assay type: functional
# Enterococcus faecium = assay: Antibacterial activity against Enterococcus faecium ATCC 19434 assessed as inhibition of bacterial growth incubated for 24 hrs; assay type: functional
# Enterococcus faecalis [16] = assay: Antibacterial activity against vancomycin-resistant Enterococcus faecalis clinical isolate p1-2007226001 assessed as inhibition of bacterial growth incubated for 24 hrs; assay type: functional
# Enterococcus faecalis [17] = assay: Antibacterial activity against vancomycin-resistant Enterococcus faecalis clinical isolate p1-2007225053 assessed as inhibition of bacterial growth incubated for 24 hrs; assay type: functional
# Staphylococcus aureus [18] = assay: Antibacterial activity against methicillin resistant Staphylococcus aureus clinical isolate assessed as inhibition of bacterial growth incubated under dark condition and measured upto 5 hrs; assay type: functional, organism-based
# Erythrocyte = assay: Hemolytic activity in human Red blood cells assessed as concentration required for 5% hemolysis measured after 1.5 hrs by absorbance based assay; assay type: toxicity, cell-based
# [19] = Hemolytic activity in human Red blood cells at 256 ug/ml measured after 1.5 hrs by absorbance based assay relative to control; assay type: toxicity, cell-based, Erythrocyte; settings: red blood cells (erythrocytes), at 256 µg/mL, read-out: Activity
# Staphylococcus aureus [20] = assay: Resistance development in methicillin resistant Staphylococcus aureus assessed as increase in MIC measured after 20 days; assay type: functional, organism-based; settings: time 20.0 day
# Pseudomonas aeruginosa [21] = assay: Resistance development in Pseudomonas aeruginosa assessed as increase in MIC measured after 20 days; assay type: functional, organism-based; settings: time 20.0 day
# Staphylococcus aureus [22] = assay: Antibiofilm activity in methicillin resistant Staphylococcus aureus assessed as biofilm eradication measured after 24 hrs by crystal violet staining based analysis; assay type: functional, organism-based; settings: dose 1-2 µg/ml
# Pseudomonas aeruginosa [23] = assay: Antibiofilm activity in Pseudomonas aeruginosa assessed as biofilm eradication measured after 24 hrs by crystal violet staining based analysis; assay type: functional, organism-based; settings: dose 1-2 µg/ml
# Pseudomonas aeruginosa [24] = assay: Induction of intracellular ROS generation in Pseudomonas aeruginosa assessed as increase in fluorescence intensity at 2 ug/ml incubated for 6 hrs by DCFH-DA dye based fluorescence analysis; assay type: functional, organism-based; settings: dose 2.0 µg/ml
# Pseudomonas aeruginosa [25] = assay: Induction of intracellular ROS generation in Pseudomonas aeruginosa assessed as increase in fluorescence intensity at 2 ug/ml incubated for 6 hrs in presence of N-acetyl-L-cysteine by DCFH-DA dye based fluorescence analysis; assay type: functional, organism-based; settings: dose 2.0 µg/ml
# Cell membrane [26] = assay: Induction of cell membrane depolarization in methicillin-resistant Staphylococcus aureus assessed as increase in fluorescence intensity at 1 ug/ml measured for 30 mins by DiSC35 dye based fluorescence analysis; assay type: cell membranes; settings: dose 1.0 µg/ml
# Cell membrane [27] = assay: Induction of cell membrane depolarization in Pseudomonas aeruginosa assessed as increase in fluorescence intensity at 1 ug/ml measured for 30 mins by DiSC35 dye based fluorescence analysis; assay type: cell membranes; settings: dose 1.0 µg/ml
# Cell membrane [28] = assay: Induction of cell membrane permeability in methicillin-resistant Staphylococcus aureus assessed as increase in fluorescence intensity at 1 to 2 ug/ml incubated for 6 hrs by PI staining based fluorescence analysis; assay type: cell membranes; settings: dose 1-2 µg/ml
# Cell membrane [29] = assay: Induction of cell membrane permeability in Pseudomonas aeruginosa assessed as increase in fluorescence intensity at 1 to 2 ug/ml incubated for 6 hrs by PI staining based fluorescence analysis; assay type: cell membranes; settings: dose 1-2 µg/ml
# Cell membrane [30] = assay: Induction of cell membrane damage in methicillin-resistant Staphylococcus aureus assessed as increase in nucleic acid leakage at 0 to 2 ug/ml incubated for 12 hrs by optical density based microplate reader analysis; assay type: cell membranes; settings: dose 0-2 µg/ml
# Cell membrane [31] = assay: Induction of cell membrane damage in Pseudomonas aeruginosa assessed as increase in nucleic acid leakage at 0 to 2 ug/ml incubated for 12 hrs by optical density based microplate reader analysis; assay type: cell membranes; settings: dose 0-2 µg/ml
# Staphylococcus aureus [32] = assay: Antibacterial activity against methicillin resistant Staphylococcus aureus assessed as reduction in metabolic activity by measuring reduction in fluorescence intensity at 0.5 to 2 times MIC incubated for 6 hrs by alamar blue assay; assay type: functional, organism-based
# Pseudomonas aeruginosa [33] = assay: Antibacterial activity against Pseudomonas aeruginosa assessed as reduction in metabolic activity by measuring reduction in fluorescence intensity at 0.5 to 2 times MIC incubated for 6 hrs by alamar blue assay; assay type: functional, organism-based
# Staphylococcus aureus [34] = assay: Resistance development in ciprofloxacin-treated methicillin resistant Staphylococcus aureus assessed as increase in MIC measured after 15th generation; assay type: functional, organism-based
# Staphylococcus aureus [35] = assay: Resistance development in ciprofloxacin-treated Staphylococcus aureus ATCC 6538 assessed as increase in MIC measured after 15th generation; assay type: functional, organism-based
# Pseudomonas aeruginosa [36] = assay: Resistance development in ciprofloxacin-treated Pseudomonas aeruginosa assessed as increase in MIC measured after 15th generation; assay type: functional, organism-based
# Pseudomonas aeruginosa [37] = assay: Resistance development in ciprofloxacin-treated Pseudomonas aeruginosa ATCC 27853 assessed as increase in MIC measured after 15th generation; assay type: functional, organism-based
# Staphylococcus aureus [38] = assay: Antibiofilm activity in methicillin resistant Staphylococcus aureus assessed as biofilm eradication at 1 to 2 ug/ml measured after 24 hrs by crystal violet staining based analysis; assay type: functional, organism-based; settings: dose 1-2 µg/ml
# Pseudomonas aeruginosa [39] = assay: Antibiofilm activity in Pseudomonas aeruginosa assessed as biofilm eradication at 1 to 2 ug/ml measured after 24 hrs by crystal violet staining based analysis; assay type: functional, organism-based; settings: dose 1-2 µg/ml
# Staphylococcus aureus [40] = assay: Induction of morphological changes in methicillin resistant Staphylococcus aureus at 2 ug/ml incubated for 3 hrs by SEM analysis; assay type: functional, organism-based; settings: dose 2.0 µg/ml
# Pseudomonas aeruginosa [41] = assay: Induction of morphological changes in Pseudomonas aeruginosa at 2 ug/ml incubated for 3 hrs by SEM analysis; assay type: functional, organism-based; settings: dose 2.0 µg/ml
# Cell membrane [42] = assay: Induction of cell membrane permeability in methicillin-resistant Staphylococcus aureus assessed as increase in fluorescence intensity at 1 ug/ml incubated for 6 hrs by PI staining based fluorescence analysis; assay type: cell membranes; settings: dose 1.0 µg/ml
# Cell membrane [43] = assay: Induction of cell membrane permeability in Pseudomonas aeruginosa assessed as increase in fluorescence intensity at 1 ug/ml incubated for 6 hrs by PI staining based fluorescence analysis; assay type: cell membranes; settings: dose 1.0 µg/ml
# Staphylococcus aureus [44] = assay: Bactericidal activity against methicillin-resistant Staphylococcus aureus assessed as increase in fluorescence intensity at 2 ug/ml incubated for 6 hrs by PI staining based fluorescence analysis; assay type: functional, organism-based; settings: dose 2.0 µg/ml
# Pseudomonas aeruginosa [45] = assay: Bactericidal activity against Pseudomonas aeruginosa assessed as increase in fluorescence intensity at 2 ug/ml incubated for 6 hrs by PI staining based fluorescence analysis; assay type: functional, organism-based; settings: dose 2.0 µg/ml
Compound,MIC (Staphylococcus aureus [1]) [µg/mL],MIC (Staphylococcus aureus [2]) [µg/mL],MIC (Staphylococcus aureus [3]) [µg/mL],MIC (Staphylococcus aureus [4]) [µg/mL],MIC (Enterococcus faecalis [5]) [µg/mL],MIC (Klebsiella pneumoniae) [µg/mL],MIC (Escherichia coli [6]) [µg/mL],MIC (Escherichia coli [7]) [µg/mL],MIC (Pseudomonas aeruginosa [8]) [µg/mL],MIC (Pseudomonas aeruginosa [9]) [µg/mL],MIC (Acinetobacter baumannii) [µg/mL],MIC (Streptococcus pneumoniae) [µg/mL],MIC (Streptococcus pyogenes) [µg/mL],MIC [10] [µg/mL],MIC (Staphylococcus aureus [11]) [µg/mL],MIC (Staphylococcus aureus [12]) [µg/mL],MIC (Staphylococcus aureus [13]) [µg/mL],MIC (Staphylococcus aureus [14]) [µg/mL],MIC (Staphylococcus aureus [15]) [µg/mL],MIC (Enterococcus faecium) [µg/mL],also measured
O=C(O)Cc1cc2c(cc1F)c(=O)c(C(=O)O)cn2C1CC1,0.5,4,32,2,4,8,1,0.5,0.5,2,0.5,4,1,2,2,1,0.25,0.125,0.125,8,"MIC (Enterococcus faecalis [16]): 8 µg/mL; MIC (Enterococcus faecalis [17]): 2 µg/mL; Activity (Staphylococcus aureus [18]): Dose-Dependent Effect; HC5 (Erythrocyte): > 10000 µg/mL; hemolysis at 1.5 h, 256 ug/ml [19]: < 1%; Activity (Staphylococcus aureus [20]): inactive; Activity (Pseudomonas aeruginosa [21]): inactive; Activity (Staphylococcus aureus [22]): Dose-Dependent Effect; Activity (Pseudomonas aeruginosa [23]): Dose-Dependent Effect; Activity (Pseudomonas aeruginosa [24]): Active; Activity (Pseudomonas aeruginosa [25]): inactive; Activity (Cell membrane [26]): Active; Activity (Cell membrane [27]): Active; Activity (Cell membrane [28]): Active; Activity (Cell membrane [29]): Active; Activity (Cell membrane [30]): Active; Activity (Cell membrane [31]): Active; Activity (Staphylococcus aureus [32]): Active; Activity (Pseudomonas aeruginosa [33]): Active"
N#CCc1cc2c(cc1F)c(=O)c(C(=O)O)cn2Cc1ccc(F)cc1F,256,256,0.25,0.5,256,8,0.5,0.25,0.5,0.5,4,32,0.25,64,128,64,32,2,2,128,MIC (Enterococcus faecalis [16]): 64 µg/mL; MIC (Enterococcus faecalis [17]): 64 µg/mL; HC5 (Erythrocyte): 60 µg/mL
CCn1cc(C(=O)O)c(=O)c2cc(F)c(N3CCNCC3)cc21 [NORFLOXACIN],8,8,8,4,8,8,4,4,8,8,2,0.5,32,1,4,2,1,0.5,0.25,4,MIC (Enterococcus faecalis [16]): 8 µg/mL; MIC (Enterococcus faecalis [17]): 1 µg/mL; Activity (Staphylococcus aureus [34]): Active; Activity (Staphylococcus aureus [35]): Active; Activity (Pseudomonas aeruginosa [36]): Active; Activity (Pseudomonas aeruginosa [37]): Active
O=C(O)c1cn(C2CC2)c2cc(N3CCNCC3)c(F)cc2c1=O [CIPROFLOXACIN],,,1,0.5,,,,,,,,0.125,16,0.125,,,0.5,,,2,Activity (Staphylococcus aureus [34]): Active; Activity (Staphylococcus aureus [35]): Active; Activity (Pseudomonas aeruginosa [36]): Active; Activity (Pseudomonas aeruginosa [37]): Active; Activity (Staphylococcus aureus [38]): inactive; Activity (Pseudomonas aeruginosa [39]): inactive; Activity (Pseudomonas aeruginosa [24]): Active; Activity (Pseudomonas aeruginosa [25]): inactive; Activity (Staphylococcus aureus [40]): Active; Activity (Pseudomonas aeruginosa [41]): Active; Activity (Cell membrane [26]): inactive; Activity (Cell membrane [27]): inactive; Activity (Cell membrane [42]): inactive; Activity (Cell membrane [43]): inactive; Activity (Staphylococcus aureus [44]): Active; Activity (Pseudomonas aeruginosa [45]): Active
